Earlier results in patent publication US12502358B1, “Centanafadine multiphasic controlled-release pharmaceutical formulation” (Innovate Therapeutics LLC, priority 2024, dated 2025).

What was measured:
[1] = per BCS classification
[2] = target: norepinephrine reuptake transporter (NET) (Homo sapiens, UniProt P23975); details: rank among NET, DAT, SERT
[3] = target: serotonin reuptake transporter (SERT) (Homo sapiens, UniProt P31645); details: fraction of the potency towards NET
[4] = target: dopamine reuptake transporter (DAT) (Homo sapiens, UniProt Q01959); details: fraction of the potency towards NET
dopamine reuptake transporter (DAT), sequence (Q01959 whole entry, species assumed): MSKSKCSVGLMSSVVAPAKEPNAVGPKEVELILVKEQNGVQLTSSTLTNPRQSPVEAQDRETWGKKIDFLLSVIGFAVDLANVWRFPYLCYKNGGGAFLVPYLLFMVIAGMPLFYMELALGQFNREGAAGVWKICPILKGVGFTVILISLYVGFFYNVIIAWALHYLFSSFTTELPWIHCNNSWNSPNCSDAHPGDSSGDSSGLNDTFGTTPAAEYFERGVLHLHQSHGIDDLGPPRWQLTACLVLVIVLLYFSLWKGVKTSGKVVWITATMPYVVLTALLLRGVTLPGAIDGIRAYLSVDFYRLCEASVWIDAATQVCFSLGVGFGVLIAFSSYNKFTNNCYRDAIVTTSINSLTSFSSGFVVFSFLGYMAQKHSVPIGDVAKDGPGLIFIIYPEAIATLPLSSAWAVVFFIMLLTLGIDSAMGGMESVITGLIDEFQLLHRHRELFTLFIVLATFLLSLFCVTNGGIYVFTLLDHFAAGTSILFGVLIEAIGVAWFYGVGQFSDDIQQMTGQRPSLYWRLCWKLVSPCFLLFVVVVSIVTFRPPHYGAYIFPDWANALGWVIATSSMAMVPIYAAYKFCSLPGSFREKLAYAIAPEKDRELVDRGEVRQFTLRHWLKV

norepinephrine reuptake transporter (NET), sequence (P23975 whole entry): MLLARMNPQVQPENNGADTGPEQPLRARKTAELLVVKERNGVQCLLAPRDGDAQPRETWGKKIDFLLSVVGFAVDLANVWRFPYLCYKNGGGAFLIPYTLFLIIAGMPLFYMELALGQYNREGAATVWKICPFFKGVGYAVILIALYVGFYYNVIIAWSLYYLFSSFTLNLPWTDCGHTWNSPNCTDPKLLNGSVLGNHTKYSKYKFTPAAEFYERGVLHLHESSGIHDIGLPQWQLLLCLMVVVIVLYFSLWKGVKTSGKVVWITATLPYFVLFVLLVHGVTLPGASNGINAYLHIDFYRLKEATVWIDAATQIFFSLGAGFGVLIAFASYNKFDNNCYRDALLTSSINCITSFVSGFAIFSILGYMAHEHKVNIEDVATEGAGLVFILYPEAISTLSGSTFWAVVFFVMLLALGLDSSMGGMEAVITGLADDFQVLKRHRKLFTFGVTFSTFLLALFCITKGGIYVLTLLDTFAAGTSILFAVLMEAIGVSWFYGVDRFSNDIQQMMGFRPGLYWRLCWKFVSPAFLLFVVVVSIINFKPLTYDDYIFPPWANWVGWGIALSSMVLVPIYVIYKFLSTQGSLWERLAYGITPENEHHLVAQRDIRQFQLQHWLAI
serotonin reuptake transporter (SERT), sequence (P31645 whole entry, species assumed): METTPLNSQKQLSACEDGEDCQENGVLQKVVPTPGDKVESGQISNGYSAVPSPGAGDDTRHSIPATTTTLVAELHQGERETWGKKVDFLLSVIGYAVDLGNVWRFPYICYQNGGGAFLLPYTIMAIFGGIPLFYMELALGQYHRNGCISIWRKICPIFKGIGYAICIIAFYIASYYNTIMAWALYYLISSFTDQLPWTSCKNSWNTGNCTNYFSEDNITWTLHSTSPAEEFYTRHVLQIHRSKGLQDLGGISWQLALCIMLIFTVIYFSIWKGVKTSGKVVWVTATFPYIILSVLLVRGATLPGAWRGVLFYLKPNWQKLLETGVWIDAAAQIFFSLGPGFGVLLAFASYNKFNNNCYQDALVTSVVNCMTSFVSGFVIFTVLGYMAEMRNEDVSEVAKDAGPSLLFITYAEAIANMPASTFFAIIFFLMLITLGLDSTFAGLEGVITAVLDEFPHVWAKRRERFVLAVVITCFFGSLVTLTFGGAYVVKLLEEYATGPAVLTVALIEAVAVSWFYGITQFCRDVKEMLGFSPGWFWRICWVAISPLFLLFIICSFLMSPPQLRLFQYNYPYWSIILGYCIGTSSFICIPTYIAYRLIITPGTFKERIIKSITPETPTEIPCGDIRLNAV

## c1ccc2cc([C@]34CNC[C@H]3C4)ccc2c1 [Centanafadine, (1R,5S)-1-(naphthalen-2-yl)-3-azabicyclo[3.1.0]hexane]
[1]
  solubility: highly soluble
[2]
  potency towards the norepinephrine reuptake transporter (NET): most potency
[3]
  potency towards the serotonin reuptake transporter (SERT) relative to NET: one-fourteenth as much
[4]
  potency towards the dopamine reuptake transporter (DAT) relative to NET: one-sixth as much
